Key:
[1] = molecular target: T1, purified α-thrombin in the presence of purified human HCII (Homo sapiens, UniProt P05546); test: HCII/anti-IIa activity (plasma-free chromogenic anti-IIa assay with heparin cofactor II); type: biochemical
T1 construct: Performed in a plasma-free system with purified α-thrombin; purchased Enzyme Research Laboratories, South Bend Ind; (α-thrombin, Lot No. HT2450PRA)
T1 sequence (P05546 20-499): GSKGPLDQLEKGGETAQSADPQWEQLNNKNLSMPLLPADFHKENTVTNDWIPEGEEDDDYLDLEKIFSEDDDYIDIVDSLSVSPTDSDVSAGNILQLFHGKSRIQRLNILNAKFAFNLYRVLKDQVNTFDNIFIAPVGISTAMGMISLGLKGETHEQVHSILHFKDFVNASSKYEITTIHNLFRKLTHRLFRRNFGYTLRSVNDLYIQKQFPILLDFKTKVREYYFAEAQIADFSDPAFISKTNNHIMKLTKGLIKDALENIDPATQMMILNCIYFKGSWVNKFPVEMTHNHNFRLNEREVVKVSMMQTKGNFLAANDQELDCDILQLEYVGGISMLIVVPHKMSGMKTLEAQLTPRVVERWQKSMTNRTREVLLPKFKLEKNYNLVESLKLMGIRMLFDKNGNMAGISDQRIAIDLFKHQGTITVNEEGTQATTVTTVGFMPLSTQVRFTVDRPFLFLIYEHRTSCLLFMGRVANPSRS
Excerpt: For the purposes of the present invention, the terms “heparin cofactor II (HCII)-dependent anti-IIa activity,” “heparin cofactor II activity” and “HCII activity” refer interchangeably to the thrombin inhibitory potency of a sulfated mucopolysaccharide measured in the presence of purified human heparin cofactor II.
The chemical, physical and physiological properties of the dermatan sulfates, including the LMWDS embodiments, of this invention can be determined by the following methods: • a. Molecular weight. By gel permeation chromatography according to the method of and as defined by van Dedem et al., “Determinations of the Molecular Mass of Low Molecular Mass (LMM) Heparin,” Pharmeuropa (1991) 3:202-225 (herein incorporated by reference), using the 1st International Reference Standard for Low Molecular Weight Heparin (90/868) as the calibrant. Average molecular weights. […] The % sulfur is determined from the weight of barium sulfate. • c. […] Measurements can be performed manually or on an ACL 300 Plus Analyzer (Instrumentation Laboratory, Lexington Mass.) and anti-factor IIa activity calculated based on the USP Heparin Reference Standard K-5 (U.S. Pharmacopeial Convention, Inc., Rockville Md.). • e. […] Quantified by the PF4 ENHANCED® ELISA kit (Cat. No. X-HAT 45) according to the manufacturer's instructions (GTI, Waukesha Wis.).

[2] = Heparin assay (USP heparin potency)
Excerpt: The chemical, physical and physiological properties of the dermatan sulfates, including the LMWDS embodiments, of this invention can be determined by the following methods: • a. Molecular weight. By gel permeation chromatography according to the method of and as defined by van Dedem et al., “Determinations of the Molecular Mass of Low Molecular Mass (LMM) Heparin,” Pharmeuropa (1991) 3:202-225 (herein incorporated by reference), using the 1st International Reference Standard for Low Molecular Weight Heparin (90/868) as the calibrant. Average molecular weights. By viscometric methods as described by Liberti et al., “Physiochemical Studies of Fractionated Bovine Heparin II: Viscosity as a Function of Ionic Strength,” Arch. Biochem. Biophys. […] The % sulfur is determined from the weight of barium sulfate. • c. […] Measurements can be performed manually or on an ACL 300 Plus Analyzer (Instrumentation Laboratory, Lexington Mass.) and anti-factor IIa activity calculated based on the USP Heparin Reference Standard K-5 (U.S. Pharmacopeial Convention, Inc., Rockville Md.). • e. […] Quantified by the PF4 ENHANCED® ELISA kit (Cat. No. X-HAT 45) according to the manufacturer's instructions (GTI, Waukesha Wis.).
The chemical, physical and physiological properties of the O-desulfated heparins of this invention can be determined by the following methods: • a. […]

dermatan sulfate
HCII/anti-IIa activity [1]: less than 15 u/mg | heparin assay [2]: < 8 u/mg
